In patent US6593307B1, “Cyclic-ADP-ribose analogs” (Regents of the University of Minnesota, priority 1999, dated 2003):
“Also recorded” adds a separate entry of the source. Like-named read-outs stand apart in the source and are kept apart here. Blank lines part the entries; values can stand above or below the compound they belong to.

What was measured:
[1] = tested on: sea urchin egg homogenates; test: Ca2+ release assay in sea urchin egg homogenates; format: biochemical, Strongylocentrotus purpuratus; details: for EC50: S. purpuratus egg homogenates, read-out: half-maximal concentration for Ca2+ release (EC50)
Protocol: The dilutions and all experiments were conducted at 17° C. Free Ca^2+ concentrations were measured by monitoring the fluorescence (490 nm excitation, 535 nm emission) of the indicator using a Perkin Elmer Model 650 spectrofluometer. […] For some experiments a BMG FluoStar 96 well fluorescence plate reader was used. In this case, samples to be tested were added to wells of a 96 well plate in 1.5 μl aliquots. Calcium release was initiated by adding 150 μl of homogenate to each well with a multichannel pipette. Six to eight wells were measured simultaneously. Samples to be tested were diluted in IM buffer containing 10 μM EGTA.

[2] = Stability to heat (boiling water bath), read out by Ca2+ release
Excerpt: Aliquots were then cooled on ice and the ability of the sample to release Ca^2+ determined. Data is average±sd for a representative experiment performed in triplicate.

CB MNC [3] = test: Fluorimetric determination of [Ca2+]i in CB MNC (FURA 2); format: cell-based, human
Protocol: Measurements were performed at room temperature in a 2 ml-cuvette under continuous stirring. […] Chem., 273, 8017-8024. The frequency of recording was 1 point/s. All measurements were performed in Ca^2+-free external solutions.

CD38 [4] = details: 1 μg/ml CD38 at 37° C.
[5] = tested on: cord blood (CB) mononuclear cells (MNC)
Protocol: (§2) After liquid culture, an appropriate number of MNC or CD34^+-enriched cells was plated in methylcellulose medium supplemented with a mixture of hemopoietic growth factors (Methocult; Stem Cell Technologies, Vancouver, BC, Canada). After 14 days of incubation in a humidified, 5% CO2 atmosphere at 37° C., colonies were scored using an inverted microscope, applying standard criteria for their identification.

CD38 [6] = test: Stability to hydrolysis by CD38, read out by Ca2+ release
Live L. pictus eggs = test: Microinjection into live sea urchin eggs (Ca2+ mobilization, cortical reaction)
Excerpt: Live L. pictus eggs were preloaded with the calcium indicator, fluo 3, by microinjection.

[7] = general statement, not tested here; cited from earlier work
L. pictus = details: cited from earlier work
[8] = tested on: cord blood (CB) mononuclear cells (MNC); test: Colony size (cells per colony) from CB MNC; format: cell-based, human; details: 100 μM, 24 hours priming
Protocol: as §2

[9] = tested on: bone marrow (BM)-derived clonogenic progenitors; test: CFC output of bone marrow-derived clonogenic progenitors; format: cell-based, human; details: 100 μM, 24 hours, n=3
Excerpt: (§1) Normal bone marrow (BM) cells were obtained from donors providing marrow for allogeneic transplantation. Leukapheresis samples were obtained from normal donors providing peripheral blood (PB) progenitor cells for allogeneic transplant after a short course of granulocyte colony-stimulating factor. All donors gave informed consent. Mononuclear cells (MNC) from CB, BM and PB were separated by density gradient centrifugation on Ficoll-Hypaque (Sigma). After separation, cells were washed twice in Iscove's Modified Dulbecco's Medium (IMDM) containing 5% fetal calf serum (FCS) and resuspended in IMDM containing 10% FCS, penicillin 100 U/ml, streptomycin 100 μg/ml and glutamine 2 mM (complete medium).

[10] = tested on: peripheral blood (PB)-derived clonogenic progenitors; test: CFC output of peripheral blood-derived clonogenic progenitors; format: cell-based, human; details: 100 μM, 24 hours, n=2
Excerpt: as §1

CD34+-enriched MNC = test: CFC growth from CD34+-enriched fractions; format: cell-based, human; details: 100 μM, 24 hours, n=6
Protocol: Immunoaffinity purification of CD34^+ cells was used to enrich MNC in colony forming cells (CFC) and early progenitors (Krause, D. […] CD34^+ cell enrichment was performed by positive selection using the miniMACS immunomagnetic separation system (Miltenyi Biotec GmBH, Germany). Briefly, PB- or CB-derived MNC were suspended in phosphate-buffered saline (PBS) containing 0.5% bovine serum albumin and 5 mM EDTA and CD34^+ cells were separated using anti-CD34 antibody (clone: QBEND/10; isotype: mouse IgG1) and colloidal superparamagnetic beads. After labeling, the cell suspension was passed through a column held within a magnetic field causing CD34^+ cells to be retained in the column. Purified CD34^+ cells were then collected following removal of the column from the magnet and washing with buffer.

CB MNC [11] = test: Cytosine arabinoside-susceptibility of CB MNC CFC; format: cell-based, human
Excerpt: Thereafter, cells were washed, counted and plated in semisolid medium for assay of CFC at a concentration of 10^4 MNC/plate.

[12] = tested on: specific microsomal binding site for cADPR; details: cited from earlier work
[13] = 100 nM in pipette, about 0.7 nM in the egg
[14] = 1 μM in pipette, about 10 nM in the egg
[15] = 10 μM in pipette, ~130 nM in the egg

Compound: N=c1c2ncn3c2ccn1C1OC(COP(=O)(O)OP(=O)(O)OCC2OC3C(O)C2O)C(O)C1O (stereo not shown) [3-deaza-cADPR, cyclic 3-deaza-adenosine diphosphoribose]
lag before Ca2+ release at low concentrations [1]: an appreciable lag is seen
desensitization of homogenate to subsequent challenge by the other agonist ([1]; 1 μM cADPR, 500 nM 3-deaza-cADPR): renders the system unresponsive
EC50 [1]: 1 ± 0.4 nM
final concentration able/needed to elicit Ca2+ release ([1]; control traces, FIG. 3): 0.3 nM
resistance to heat hydrolysis [2]: resistant
fraction inactivated upon boiling ([2]; boiling for up to two hours, 350 nM): about 15%
[Ca2+]i after 24 hours (CB MNC [3]; 10 nM 3-deaza-cADPR, n=7, basal 20.3±1.8): 96.4 ± 5.0 nM
calcium response of intact cells over 30 min (CB MNC [3]; 100 μM cADPR or 10 nM 3-deaza-cADPR, zero-calcium external solution): same rate and extent
calcium levels following removal of the nucleotide (CB MNC [3]; at least 48 hours after removal): remained unchanged
[Ca2+]i(t=0), fitted parameter (CB MNC [3]; single exponential fit, 10 nM): 21.1 ± 0.6 nM
Δmax[Ca2+]i, fitted maximal calcium change (CB MNC [3]; single exponential fit, 10 nM): 74.0 ± 0.7 nM
τ, time constant of [Ca2+]i increase (CB MNC [3]; single exponential fit, 10 nM): 6.5 h
hydrolysis by CD38 (CD38 [4]): did not hydrolyze
median CFC output ([5]; 1 nM, n=5, control 1,150): 2,050 CFC/ml
median CFC output ([5]; 1 μM, n=5, control 1,150): 2,200 CFC/ml
CFC output compared to untreated cells ([5]; 1, 10, 100 and 1,000 nM, each concentration): significant increase
effect of 1 nM as share of the effect induced by 1 μM ([5]; CFC output): 95%
resistance to enzymatic hydrolysis (CD38 [6]): resistant
Ca2+ transient (Live L. pictus eggs; [13]): small
injected eggs with partial cortical reaction (Live L. pictus eggs; [13]): 1 out of 6
full cortical reactions out of the 7 eggs injected (Live L. pictus eggs; [14]): 4
partial cortical reaction out of the 7 eggs injected (Live L. pictus eggs; [14]): 1
Ca2+ transient (Live L. pictus eggs; [15]): large
eggs with full cortical reaction (Live L. pictus eggs; [15]): 5 out of 5

EC50 [1]: ~25 nM
Compound: N=c1c2ccn3c2ncn1C1OC(COP(=O)(O)OP(=O)(O)OCC2OC3C(O)C2O)C(O)C1O (stereo not shown) [7-deaza-cADPR]
agonist character [1]: partial agonist
Ca2+ release relative to that induced by cADPR or 3-deaza-cADPR ([1]; maximal response, FIG. 4): about 70%
resistance of the N1-glycosidic linkage to hydrolysis [7]: resistant to hydrolysis
relative potency of cADPR and 7-deaza-cADPR (L. pictus): cADPR is more potent than 7-deaza-cADPR

Compound: N=c1c2nc(N)n3c2ncn1[C@@H]1O[C@H](COP(=O)(O)OP(=O)(O)OC[C@H]2O[C@@H]3[C@H](O)[C@@H]2O)[C@@H](O)[C@H]1O [8-NH2-cADPR]
effect on 3-deaza-cADPR-induced Ca2+ release ([1]; 2.7 nM 3-deaza-cADPR, 60 and 300 nM 8-amino-cADPR): blocks; also recorded: can also inhibit
amount of Ca2+ releasable by calcium ionophore A23187 vs untreated (CB MNC [3]; 10 μM, 24 hours): consistent increase
basal [Ca2+]i after incubation (CB MNC [3]; 10 μM, 24 hours, n=3, from 20±2): 14 ± 1 nM
effect on calcium increase induced by cADPR (CB MNC [3]; 100 μM, 2 hours pre-incubation): completely inhibited
[Ca2+]i following exposure to cADPR (CB MNC [3]; 2 hours pre-incubation with 100 μM 8-NH2-cADPR, then 100 μM cADPR for 4 hours, n=2): 20 nM
mean CFC output ([5]; 10 μM 8-NH2-cADPR plus 10-fold excess cADPR (100 μM), 24 hours, control 2,800): 1,200 CFC/ml
mean CFC output ([5]; 10 μM 8-NH2-cADPR plus 100-fold excess cADPR (1 mM), 24 hours, control 2,600): 2,500 CFC/ml
effect on colony growth ([5]; 10 μM, 24 hours pre-treatment): completely inhibited colony growth
median CFC output ([5]; 10 μM, 24 hours, n=3, untreated 3,400): zero
colony growth after further 24 hours with cADPR (100 μM) ([5]; after 10 μM 8-NH2-cADPR pre-treatment): did not restore colony growth

Compound: Nc1ncnc2c1ncn2[C@@H]1O[C@H](COP(=O)(O)OP(=O)(O)OC[C@H]2OC(O)[C@H](O)[C@@H]2O)[C@@H](O)[C@H]1O (stereo partly shown) [ADPR, ADP-ribose]
Median number of cells per colony [8]: 11,560
Range of number of cells per colony [8]: 6,200-19,000
median CFC output, BM-derived [9]: 1,500 CFC/ml
median CFC output, PB-derived [10]: 1,460 CFC/ml
median CFC growth from CD34+-enriched fractions (CD34+-enriched MNC): 18,000 CFC/10^6 MNC
range of CFC growth from CD34+-enriched fractions (CD34+-enriched MNC): 360-70,000 CFC/10^6 MNC
Median CFC number per ml ([5]; 100 μM, 24 hours, CB MNC): 2,141 CFC/ml
Range of CFC number per ml ([5]; 100 μM, 24 hours, CB MNC): 600-13,120 CFC/ml
effect on CFC growth compared to untreated cells ([5]; any of the concentrations tested (1-1,000 μM)): No effect

Compound: Nc1ccn([C@@H]2O[C@H](CO)[C@@H](O)[C@@H]2O)c(=O)n1 [c-ARA, Cytosine arabinoside]
effect on the growth-stimulating effect of cADPR (CB MNC [11]; 1 μM c-ARA, 24 hours): complete inhibition
effect on increased replating efficiency produced by cADPR priming (CB MNC [11]; 1 μM c-ARA, 24 hours pretreatment): did not affect
median colony number (CB MNC [11]; c-ARA pretreated (1 μM, 24 hours), incubated without cADPR, n=8): 21 per 10^4 plated MNC

Compound: inositol trisphosphate
competition for the cADPR binding site relative to cADPR [12]: at least a thousand times less effectively than cADPR
